Data from article PMC10766536 (The Journal of Antibiotics, 2023).
Like-named read-outs stand apart in the source and are kept apart here.

Tests used:
[1] = molecular target: CYP 2D6 (Homo sapiens, UniProt P10635); test: CYP inhibition; conditions: read-out: CYP inhibition IC50; CYP 2D6, substrate Dextromethorphan; ND = Not Detected
[2] = system: S. aureus NRS384; test: S. aureus intracellular killing assay in THP-1 macrophages; type: cell-based; conditions: S. aureus NRS384 in THP-1 macrophages, 2 h, top conc. 1e−6 M
Procedure: (§1) THP-1 monocytic cell line (American Type Culture Collection) was grown in media (RPMI + 10% FBS + 1% Penicillin/Streptomycin), then seeded at a density of 1e5 cells/well in a 96 well plate and differentiated into macrophages for 3 days prior to infection using 200 nM PMA. Overnight culture of S. aureus or S. typhimurium was grown in RPMI or TSB, respectively, washed twice with PBS and resuspended at 1e7 cfu/ml in PBS. THP-1 were washed with warm media (RMPI without FBS) to remove the Penicillin/Streptomycin and then infected with the bacterial suspension at a multiplicity of infection of 10:1 (S. aureus:macrophages) or 5:1 (S. typhimurium:macrophages). Plates were centrifuged at 300 × g for 5 min to synchronize adhesion of the bacteria to the macrophages, then incubated at 37 °C for 2 h for S. aureus infection or 1 h for S. typhimurium infection. Free-floating bacteria were removed by washing twice with warm media and the remaining extracellular bacteria were killed by addition of media containing gentamicin (50 ug/ml). After 1 h, media was aspirated and the indicated compound was added to the S. aureus-infected macrophages in a dilution series starting at 1e−6 M, with 1:5 dilutions for 6 points (1.0 × 10^−6 M, 2.0 × 10^−7 M, 4.0 × 10^−8 M, 8.0 × 10^−9 M, 1.6 × 10^−9 M, and 3.2 × 10^−10 M) or to the to the S. typhimurium-infected macrophages in a dilution series starting at 1e−4 M, with 1:3 dilutions followed by 1:10 dilutions for 6 points (1.0 × 10^−4 M, 3.0 × 10^−5 M, 1.0 × 10^−5 M, 1.0 × 10^−6 M, 1.0 × 10^−7 M, and 1.0 × 10^−8 M). The compounds were added in media containing 50 µg/ml gentamicin to prevent extracellular growth of bacteria. After 2 h, plates were washed twice with warm RPMI without FBS, and 100 μl of THP-1 lysis buffer (0.1% Triton in PBS) was added to each well. Bacterial survival was enumerated by colony forming units (cfu) through serial dilution and plating onto tryptic soy agar (TSA, Teknova) plates.

[3] = rat, s9
[4] = molecular target: CYP 2C8 (Homo sapiens, UniProt P10632); test: CYP inhibition; conditions: read-out: CYP inhibition IC50; CYP 2C8, substrate Amodiaquine; ND = Not Detected
[5] = system: Salmonella typhimurium AR-0031; test: S. typhimurium broth killing (growth inhibition) assay; conditions: Salmonella typhimurium AR-0031, TSB, 24 h
Source text: (§2) To test the potency of rifamycin analogs of the disclosure in vitro, a broth growth inhibition assay was developed.

[6] = molecular target: T1, MDCK-MDR1: overexpression of Pgp (Homo sapiens, UniProt P08183)
[7] = mouse, s9
[8] = system: Salmonella typhimurium ATCC 14028; test: S. typhimurium intracellular killing assay in THP-1 macrophages; type: cell-based; conditions: Salmonella typhimurium ATCC 14028 in THP-1 macrophages, top conc. 1e−4 M
Procedure: as §1

[9] = system: Salmonella typhimurium AR-0031; test: as above; type: cell-based; conditions: Salmonella typhimurium AR-0031 in THP-1 macrophages, top conc. 1e−4 M
Procedure: as §1

[10] = system: Sprague Dawley rats; test: 2-week IV once-a-day toxicity study with 2-week recovery in Sprague Dawley rats
Procedure: A subset from each dose group was maintained for 14 days after the last dose to evaluate delayed toxicity and/or recovery. All animals were observed twice daily for mortality and signs of pain or distress. Detailed clinical observations, body weight measurements and food consumption were conducted weekly; post dose observations (30 min post dose) were conducted daily or as required. Clinical pathology evaluations (hematology, coagulation parameters, and serum chemistry) were performed using samples collected on the day of scheduled sacrifice (main and recovery). At the end of the 14-day dosing period, and at the end of the 14-day recovery period, necropsies were performed on all animals, selected organs were weighed, and tissues were examined macroscopically and microscopically. Toxicokinetic parameters were evaluated on Day 1 and 14.

[11] = system: Salmonella typhimurium ATCC 14028; test: S. typhimurium broth killing (growth inhibition) assay; conditions: Salmonella typhimurium ATCC 14028, TSB, 24 h
Source text: as §2

[12] = S9 microsome stability, CD-1 mouse; conditions: text statement for rodent (mouse and rat) S9
[13] = system: S. aureus NRS384; test: S. aureus broth killing (growth inhibition) assay; conditions: S. aureus NRS384, TSB, 24 h, OD600
Source text: as §2

[14] = molecular target: CYP 2B6 (Homo sapiens, UniProt P20813)
[15] = system: CYP 3A4
[16] = molecular target: CYP 2C19 (Homo sapiens, UniProt P33261)
[17] = molecular target: CYP 3A4 (Homo sapiens, UniProt P08684); conditions: read-out: CYP inhibition IC50, ND = Not Detected
[18] = molecular target: T1, MDCK-MDR1: overexpression of Pgp; test: MDCK-MDR1 permeability and efflux
[19] = system: Caco-2: endogenous transporters; test: Caco-2 permeability
[20] = combination with vancomycin, end of treatment
[21] = end of treatment period, compound alone
[22] = males, combination with vancomycin (1 + 110 mg/kg/day), end of treatment, considered vancomycin-related

T1 sequence (P08183 whole entry): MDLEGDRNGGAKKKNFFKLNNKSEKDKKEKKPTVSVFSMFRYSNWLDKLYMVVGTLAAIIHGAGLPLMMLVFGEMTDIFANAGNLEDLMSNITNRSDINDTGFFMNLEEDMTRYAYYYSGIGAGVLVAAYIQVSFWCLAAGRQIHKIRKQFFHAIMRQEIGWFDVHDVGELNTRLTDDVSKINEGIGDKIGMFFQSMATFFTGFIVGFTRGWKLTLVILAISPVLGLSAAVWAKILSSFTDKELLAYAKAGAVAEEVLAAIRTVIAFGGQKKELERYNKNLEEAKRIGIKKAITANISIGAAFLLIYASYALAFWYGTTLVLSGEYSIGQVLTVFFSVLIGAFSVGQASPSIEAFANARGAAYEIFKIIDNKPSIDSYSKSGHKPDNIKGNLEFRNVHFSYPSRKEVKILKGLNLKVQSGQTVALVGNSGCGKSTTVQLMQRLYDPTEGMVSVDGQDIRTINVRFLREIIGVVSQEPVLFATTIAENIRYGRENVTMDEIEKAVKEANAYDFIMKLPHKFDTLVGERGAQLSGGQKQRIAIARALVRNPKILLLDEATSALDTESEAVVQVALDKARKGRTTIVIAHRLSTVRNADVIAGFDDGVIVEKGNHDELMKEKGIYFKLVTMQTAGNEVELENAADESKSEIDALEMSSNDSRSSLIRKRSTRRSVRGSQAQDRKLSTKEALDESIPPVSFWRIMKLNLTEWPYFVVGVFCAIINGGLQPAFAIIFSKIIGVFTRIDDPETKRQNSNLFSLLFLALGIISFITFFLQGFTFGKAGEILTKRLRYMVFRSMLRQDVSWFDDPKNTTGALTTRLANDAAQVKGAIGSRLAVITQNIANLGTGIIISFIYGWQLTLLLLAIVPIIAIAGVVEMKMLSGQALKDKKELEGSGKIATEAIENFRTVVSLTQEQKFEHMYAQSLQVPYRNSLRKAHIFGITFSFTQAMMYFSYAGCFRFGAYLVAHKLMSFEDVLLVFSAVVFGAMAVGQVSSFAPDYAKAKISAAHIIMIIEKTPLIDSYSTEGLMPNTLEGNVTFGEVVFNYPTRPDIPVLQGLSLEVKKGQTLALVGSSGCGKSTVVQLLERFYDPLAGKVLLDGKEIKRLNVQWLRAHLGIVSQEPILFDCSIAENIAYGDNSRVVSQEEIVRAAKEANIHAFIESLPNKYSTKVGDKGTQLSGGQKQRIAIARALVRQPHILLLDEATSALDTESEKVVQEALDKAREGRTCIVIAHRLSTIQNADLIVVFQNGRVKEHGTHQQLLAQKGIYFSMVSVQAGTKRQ
CYP 3A4 (Homo sapiens, UniProt P08684), sequence (P08684 whole entry): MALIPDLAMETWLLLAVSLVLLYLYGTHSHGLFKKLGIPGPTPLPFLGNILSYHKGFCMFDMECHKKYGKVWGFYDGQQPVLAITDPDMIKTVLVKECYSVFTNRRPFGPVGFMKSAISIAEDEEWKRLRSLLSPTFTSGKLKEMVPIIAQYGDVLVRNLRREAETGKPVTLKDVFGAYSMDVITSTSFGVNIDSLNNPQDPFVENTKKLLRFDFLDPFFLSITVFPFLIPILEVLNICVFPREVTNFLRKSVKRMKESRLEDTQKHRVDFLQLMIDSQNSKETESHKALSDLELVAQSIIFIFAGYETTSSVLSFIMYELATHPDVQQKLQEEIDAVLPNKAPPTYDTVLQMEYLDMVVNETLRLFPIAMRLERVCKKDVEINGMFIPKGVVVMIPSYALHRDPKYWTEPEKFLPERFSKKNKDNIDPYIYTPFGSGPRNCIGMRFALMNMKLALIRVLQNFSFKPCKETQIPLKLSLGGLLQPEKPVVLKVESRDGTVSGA
CYP 2C8, sequence (P10632 whole entry): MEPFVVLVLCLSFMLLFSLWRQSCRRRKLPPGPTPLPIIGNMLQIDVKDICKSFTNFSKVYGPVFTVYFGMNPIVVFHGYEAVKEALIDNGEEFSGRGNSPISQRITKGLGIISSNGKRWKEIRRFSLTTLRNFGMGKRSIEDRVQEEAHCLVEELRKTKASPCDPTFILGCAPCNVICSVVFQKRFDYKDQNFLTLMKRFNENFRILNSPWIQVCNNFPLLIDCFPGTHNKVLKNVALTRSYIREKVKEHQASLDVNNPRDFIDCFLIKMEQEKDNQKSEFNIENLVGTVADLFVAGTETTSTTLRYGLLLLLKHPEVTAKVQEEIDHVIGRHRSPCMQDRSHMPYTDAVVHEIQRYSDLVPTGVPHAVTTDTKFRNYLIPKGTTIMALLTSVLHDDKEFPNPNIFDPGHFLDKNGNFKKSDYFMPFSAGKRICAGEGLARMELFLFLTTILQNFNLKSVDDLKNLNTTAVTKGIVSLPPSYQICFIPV
CYP 2D6, sequence (P10635 whole entry): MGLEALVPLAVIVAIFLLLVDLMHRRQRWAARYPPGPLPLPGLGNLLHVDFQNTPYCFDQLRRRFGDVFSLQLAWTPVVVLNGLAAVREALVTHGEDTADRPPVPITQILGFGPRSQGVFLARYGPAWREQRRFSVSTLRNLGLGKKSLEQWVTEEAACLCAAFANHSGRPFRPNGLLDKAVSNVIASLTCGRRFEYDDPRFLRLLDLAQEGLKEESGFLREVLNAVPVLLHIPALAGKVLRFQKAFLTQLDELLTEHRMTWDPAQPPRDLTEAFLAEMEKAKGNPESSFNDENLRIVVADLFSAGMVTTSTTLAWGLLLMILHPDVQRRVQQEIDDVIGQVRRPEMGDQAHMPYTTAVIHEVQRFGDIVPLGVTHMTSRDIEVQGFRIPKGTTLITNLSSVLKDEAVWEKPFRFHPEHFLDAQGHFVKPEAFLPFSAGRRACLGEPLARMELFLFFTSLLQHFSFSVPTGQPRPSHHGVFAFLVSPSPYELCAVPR
CYP 2B6, sequence (P20813 whole entry): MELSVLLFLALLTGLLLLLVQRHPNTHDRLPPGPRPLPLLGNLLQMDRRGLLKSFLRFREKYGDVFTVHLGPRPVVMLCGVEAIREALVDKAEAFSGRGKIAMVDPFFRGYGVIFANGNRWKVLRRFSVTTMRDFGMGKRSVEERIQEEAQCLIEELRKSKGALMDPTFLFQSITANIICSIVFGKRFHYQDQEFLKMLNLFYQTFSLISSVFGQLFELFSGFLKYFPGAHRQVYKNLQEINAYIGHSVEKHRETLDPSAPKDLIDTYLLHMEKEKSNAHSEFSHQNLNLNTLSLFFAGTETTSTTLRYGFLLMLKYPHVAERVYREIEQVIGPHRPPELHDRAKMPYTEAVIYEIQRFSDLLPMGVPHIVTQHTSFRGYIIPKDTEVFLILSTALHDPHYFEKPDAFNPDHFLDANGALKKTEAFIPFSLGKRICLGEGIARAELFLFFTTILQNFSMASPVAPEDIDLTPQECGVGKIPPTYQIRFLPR
CYP 2C19, sequence (P33261 whole entry): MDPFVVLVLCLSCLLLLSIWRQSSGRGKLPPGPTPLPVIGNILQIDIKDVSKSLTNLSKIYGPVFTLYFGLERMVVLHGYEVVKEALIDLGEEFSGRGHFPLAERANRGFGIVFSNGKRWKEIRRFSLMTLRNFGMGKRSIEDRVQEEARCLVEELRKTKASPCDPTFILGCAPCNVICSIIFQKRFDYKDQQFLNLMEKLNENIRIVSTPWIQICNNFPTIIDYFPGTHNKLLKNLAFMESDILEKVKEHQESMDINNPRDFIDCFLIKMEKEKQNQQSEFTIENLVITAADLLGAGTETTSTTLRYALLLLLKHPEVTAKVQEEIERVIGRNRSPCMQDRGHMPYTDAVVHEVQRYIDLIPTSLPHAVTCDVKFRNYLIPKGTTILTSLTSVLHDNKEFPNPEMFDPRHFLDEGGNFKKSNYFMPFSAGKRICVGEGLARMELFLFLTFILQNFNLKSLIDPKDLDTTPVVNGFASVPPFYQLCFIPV

COC1C=COC2(C)Oc3c(C)c(O)c4c(=O)c(c5oc6cc(OCCN(C)C)ccc6nc-5c4c3C2=O)NC(=O)C(C)=CC=CC(C)C(O)C(C)C(O)C(C)C(OC(C)=O)C1C (centres unmarked) [Compound 4]
IC50 [1]: 11.7 µM | Intracellular MIC [2]: 0.04 µM | T1/2 [3]: >2 h | IC50 [4]: 6.76 µM | Broth MIC [5]: 1 µM | Mean A-B % Recovery [6]: 89.10% | Mean B-A % Recovery [6]: 54.80% | Mean Papp A-B [6]: 1.38 10^−6 cm/s | Mean Papp B-A [6]: 18.9 10^−6 cm/s | T1/2 [7]: >2 h | Intracellular MIC [8]: 100 µM | Intracellular MIC [9]: 30 µM | albumin concentration [10, 20]: minimal decrease | glucose concentration [10, 20]: minimal increase | urea nitrogen [10, 20]: minimal increase | dose with apparent minimal increase in alkaline phosphatase in males ([10]; end of recovery period): ≥ 1 mg/kg/day | dose with increase in glucose ([10]; end of recovery period): ≥ 0.1 mg/kg/day | dose with minimal to mild decreases in globulin in males ([10]; end of recovery period): ≥ 0.1 mg/kg/day | dose with minimal increases in phosphorus ([10]; end of treatment period): ≥ 0.1 mg/kg/day | dose with minimal increases in reticulocyte counts ([10]; end of treatment period): ≥ 0.1 mg/kg/day | dose with minimal decrease in albumin concentration [10, 21]: 10 mg/kg/day | dose with minimal increase in glucose concentration [10, 21]: 1 mg/kg/day | neutrophils counts [10, 22]: mild decreases | platelet counts [10, 22]: minimal increase | red cell mass parameters (red blood cells, hemoglobin, hematocrit) [10, 22]: minimal decreases | calcium ([10]; males, combination with vancomycin, after 14-day recovery): minimal decrease | globulin ([10]; males, combination with vancomycin, end of recovery period): minimal to mild decreases | fibrinogen ([10]; males, combination with vancomycin, end of treatment, attributed to vancomycin): minimal increases | tolerability ([10]; rat, IV QD 14 days, 0.1-10 mg/kg/day): well-tolerated | body weight, body weight gains, food consumption changes ([10]; rat, IV QD 14 days, alone or in combination with vancomycin): no body weight, body weight gains, or food consumption changes | no-observed-adverse-effect level (NOAEL) ([10]; rat, IV QD 14 days, highest dose administered): 10 mg/kg/day | Broth MIC [11]: 4 µM | half-lives, rodent S9 microsomal stability [12]: greater than 120 min | Broth MIC [13]: 0.00391 µM | IC50 [14]: 11.6 µM | Fold Induction (Enzyme Activity) [15]: 0.128 | IC50 [16]: 9.99 µM | IC50 ([17]; CYP 3A4, substrate Midazolam): 8.05 µM | IC50 ([17]; CYP 3A4, substrate Testosterone): 5.66 µM | Mean (B-A/A-B) Efflux Ratio [18]: 13.7 | Mean (B-A/A-B) Efflux Ratio [19]: 3.97
